Assay results published in patent US9868715B2 (THE BOARD OF REGENTS OF THE UNIVERSITY OF TEXAS SYSTEMS, priority 2014, dated 2018).
“Also recorded” adds a separate entry of the source.

Columns and labels:
[1] = test system: C57BL/6 mice with cerulein-induced CP; test: Chronic pancreatitis (CP) animal model, fibronectin IHC; assay type: in vivo; conditions: 0.5 mg/kg daily oral gavage, 3 weeks
Experimental: In order to evaluate the anti-fibrotic effect of these new compounds as a proof-of-concept, the compounds were tested in a preclinical animal model of CP. CP was induced in mice using the well-established model of repeated cerulean (CR) injections (Lerch and Gorelick 2013, Gastroenterology 144:1180; Aghdassi et al. 2011, Fibrogenesis Tissue Repair 4:26). […] After four weeks, the pancreata were processed and stained for fibronectin, which is a major component of the ECM. […] ImageJ analysis of the slides quantified the significant decrease in fibrosis (p<0.001) (FIG. 4E).
Chronic pancreatitis (CP) animal model. Animal experiments were conducted under an Institutional Animal Care and Use Committee-approved protocol. CP was induced in C57BL/6 mice using supraoptimal pancreatic stimulation with cerulein (CR), a cholecystokinin analogue (Bachem, Torrance, Calif.). CP (50 μg CR/kg mouse weight) was administered via intraperitoneal route hourly for 5 h for 3 d/week for a total of 4 weeks. Control mice received phosphate buffered saline (PBS) injections following the same schedule. […] At the end of Week 4, the mice were anesthestized with isoflurane and sacrificed per protocol. The pancreata were quickly harvested and processed.
Immunohistochemistry (IHC) and image analysis. Pancreata were formalin-fixed and paraffin-embedded. Prior to staining, sections (5 μm) were deparaffinized with xylene, dehydrated with ethanol, and subjected to heat-mediated antigen retrieval (DAKO, Carpinteria, Calif.) to optimize antigen immunoreactivity. Fibronectin antibody (1:600; Santa Cruz Biotechnology, Dallas, Tex.), and biotinylated anti-goat IgG (1:400; Vector Laboratories Inc., Burlingame, Calif.) were used. […] The percent area of brown fibronectin staining was quantified using the Image Processing and Analysis in Java (ImageJ) 1.46r software (NIH, Bethesda, Md.) and a color deconvolution plug-in (Ruifrok and Johnston, Anal Quant Cytol Histol 2001, 23:291; Schneider et al., Nat Methods 2012, 9:671).

[2] = target: T1, human CBS (cystathionine-β-synthase) (Homo sapiens, UniProt P35520); test: H2S production by recombinant CBS; assay type: biochemical; conditions: 100 μM compound; H2S production as % of control (100%)
T1 construct: GST (N); made in house; host or cells: E. coli BL21(DE3) Codon Plus
T1 sequence (P35520 1-551): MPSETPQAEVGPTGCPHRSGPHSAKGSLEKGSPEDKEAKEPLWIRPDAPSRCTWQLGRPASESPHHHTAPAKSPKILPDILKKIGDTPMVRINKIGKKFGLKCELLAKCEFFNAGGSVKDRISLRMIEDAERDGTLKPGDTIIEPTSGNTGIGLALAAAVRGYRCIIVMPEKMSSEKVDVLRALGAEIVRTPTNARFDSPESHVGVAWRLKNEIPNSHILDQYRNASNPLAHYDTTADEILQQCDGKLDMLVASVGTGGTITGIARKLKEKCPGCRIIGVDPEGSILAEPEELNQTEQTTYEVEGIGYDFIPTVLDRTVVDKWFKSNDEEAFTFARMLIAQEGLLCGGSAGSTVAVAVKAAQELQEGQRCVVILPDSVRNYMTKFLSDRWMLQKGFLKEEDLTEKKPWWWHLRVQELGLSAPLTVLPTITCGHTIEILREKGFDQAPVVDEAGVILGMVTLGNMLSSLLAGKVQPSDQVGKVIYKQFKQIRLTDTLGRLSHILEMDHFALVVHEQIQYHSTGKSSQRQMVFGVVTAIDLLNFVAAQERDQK
Experimental: Recombinant human CBS protein expression and purification. The expression and purification of human CBS was performed as described previously (Asimakopoulou et al. 2013, Br J Pharmacol. 169(4):922-32). Briefly, E. Coli BL21(DE3) Codon Plus cells (Stratagene, La Jolla, Calif., USA) containing the expression vector pGEX-Kg/GST-CBS were grown at 37° C. and 180 rpm in LuriaBertani (LB) broth medium containing 100 μg/ml ampicillin to an absorption of 0.6-0.8 at 600 nm. Protein expression was induced by addition of 0.1 mM IPTG (isopropyl-b-D-thiogalactopyranoside) and cells were further incubated at 30° C. overnight. The bacteria were harvested and sonicated in lysis buffer PBS (140 mM NaCl, 2.7 mM KCl, 10 mM Na2HPO4, 1.8 mM KH2PO4, pH 7.8) containing a protease inhibitors cocktail (Sigma). The protein lysate was loaded onto a GSTrap FF 1 ml affinity column (Amersham Biosciences) and the GST-CBS recombinant protein was eluted with the elution buffer (50 mM Tris-HCl, 10 mM reduced glutathione, pH 8.0) and then dialyzed and concentrated in 10 mM sodium phosphate buffer (pH 8.2) and DTT (1 mM).
Measurement of H2S production by recombinant CBS. The measurement of H2S production by recombinant CBS enzyme was performed as described (Asimakopoulou et al. 2013, Br J Pharmacol. 169(4):922-32). Briefly, each test consisted of a 100 μl reaction mixture in 50 mM sodium phosphate buffer pH 8.2 containing 1 μg of the purified human CBS enzyme, 0.01 mM pyridoxal-5′-phosphate (PLP), 10 mM L-cysteine and 0.5 mM homocysteine. […] The reaction was initiated by transferring the Eppendorf tubes from ice to a 37° C. shaking water bath. After 60 minutes of incubation at 37° C., the reaction was terminated by adding 1% ZnAc followed by 10% trichloroacetic acid. Subsequently, N,N-dimethylphenylendiamine sulfate (20 mM in 7.2 M HCl) and FeCl3 (30 mM in 1.2 M HCl) were added and the optical absorbance of the solutions was measured at 650 nm.

SMILES	Pancreatic fibrosis in CP model (fibronectin stain), result in words [1]	activity at 100 µM [2]
COc1cc(OC)c2c(=O)cc(-c3ccc(OCC4CO4)cc3)oc2c1 (stereo not drawn) [Compound 23, 5,7-Dimethoxy-2-(4-oxiranylmethoxyphenyl)-chromen-4-one]	as efficacious as apigenin in reducing pancreatic fibrosis; also recorded: significantly decreased the stromal fibrosis of CP; also recorded: significantly reduced the fibrotic response; also recorded: significant efficacy to reduce pancreatic fibrosis	119%
O=c1cc(-c2ccc(O)cc2)oc2cc(O)cc(O)c12 [Apigenin, 4′,5,7-trihydroxyflavone, reference compound]	significantly decreased the stromal fibrosis of CP; also recorded: significantly reduced the fibrotic response; also recorded: significant efficacy to reduce pancreatic fibrosis	80.8%
COc1cc(OC)c2c(=O)cc(-c3ccc(OCC(O)CN4CCCCC4)cc3)oc2c1 (stereo not drawn) [Compound 24, 2-(4-(2-Hydroxy-3-piperidin-1-yl-propoxy)phenyl)-5,7-dimethoxy-chromen-4-one]	as efficacious as apigenin in reducing pancreatic fibrosis; also recorded: significantly decreased the stromal fibrosis of CP; also recorded: significantly reduced the fibrotic response; also recorded: significant efficacy to reduce pancreatic fibrosis	79%
